Experimental data taken from PMC12187842, “A novel molecule targeting neutrophil-mediated B-1a cell trogocytosis attenuates sepsis-induced acute lung injury” (Frontiers in Immunology, 2025).

Legend:
Assay type in all cases: in vivo, mouse
[1] = test system: neutrophil-mediated B-1a cell trogocytosis; assay: Neutrophil-mediated B-1a cell trogocytosis by flow cytometry after C11 treatment in CLP mice; conditions: C11 10 mg/kg i.p. once immediately after CLP; cells isolated 4 h after CLP; CFSE-positive events within Ly6G-positive neutrophils; n = 5-6/group; p < 0.05 vs. C11 (-)
Description: (§1) Mice were anesthetized with 2% isoflurane in oxygen, and sepsis was induced via cecal ligation and puncture (CLP) ([26]). A 1-cm midline abdominal incision was made to expose the cecum, which was ligated 1-cm proximal to its end using a 4-0 silk suture. The cecum then was perforated with a single through-and-through puncture using a 22-gauge needle, positioned midway between the ligation and the tip of the cecum. A small amount of fecal material was gently extruded from the perforation sites to confirm the patency of the punctures, and the cecum was subsequently returned to the peritoneal cavity. Following abdominal closure, resuscitation was provided via subcutaneous (s.c.) injection of 500 µL normal saline. […]
B-1a cells (target cells) were isolated, and dead cells were removed using the EasySep Dead Cell Removal Kit (Cat. No. 17899, STEMCELL Technologies). […] Trogocytosis was evaluated using confocal imaging (LSM900; Zeiss, Oberkochen, Germany) to visualize the interaction between neutrophils and B-1a cells. NucBlue Live ReadyProbes Reagent (Thermo Fisher Scientific) was used for nuclear staining. For quantitative analysis, trogocytosis was assessed by flow cytometry, where CFSE (Carboxyfluorescein succinimidyl ester)-positive events within Ly6G-positive neutrophil populations were quantified as indicators of trogocytosis. […]

[2] = test system: CLP-induced sepsis in C57BL/6 mice; assay: Plasma pro-inflammatory cytokines in CLP mice by ELISA; conditions: C11 10 mg/kg i.p. once after CLP (Figure 5 legend: 10 μg/kg); 20 h; n = 5-7/group; p < 0.05 vs. CLP vehicle
Description: as §1, with “saline. Postoperative analgesia was administered with a single dose of 0.1 mg/kg buprenorphine.” for “saline.”
Blood was collected by heart puncture. Plasma levels of organ injury markers (ALT: alanine transaminase, AST: aspartate transferase, and LDH: lactate dehydrogenase) were assessed by using colorimetric enzymatic assays (MedTest Dx, Canton, MI) according to the manufacturer’s protocol. Plasma levels of pro-inflammatory cytokines (TNFα: tumor necrosis factor α, and IL-6: interleukin-6) were measured by using mouse-specific ELISA kits (BD Biosciences).

[3] = test system: CLP-induced sepsis in C57BL/6 mice; assay: Lung myeloperoxidase activity in CLP mice; conditions: C11 10 mg/kg i.p. once after CLP (Figure 5 legend: 10 μg/kg); 20 h; n = 5-7/group; vs. CLP vehicle
Description: as §1, with “saline. Postoperative analgesia was administered with a single dose of 0.1 mg/kg buprenorphine.” for “saline.”
Approximately 50 to 100 mg of septic lung tissue, previously snap-frozen in liquid nitrogen and pulverized into a fine powder, was homogenized in potassium phosphate (KPO4) buffer containing 0.5% hexadecyltrimethylammonium bromide (HTAB; MilliporeSigma, Burlington, MA). […] The enzymatic reaction was monitored by measuring light absorbance at 460 nm over a five-minute period. MPO activity was expressed as units per gram of tissue, where one unit was defined as the change in absorbance per minute.

[4] = test system: CLP-induced sepsis in C57BL/6 mice; assay: TUNEL assay of lung tissue in CLP mice; conditions: C11 10 mg/kg i.p. once after CLP (Figure 5 legend: 10 μg/kg); 20 h; n = 5-7/group; vs. CLP vehicle
Description: as §1, with “saline. Postoperative analgesia was administered with a single dose of 0.1 mg/kg buprenorphine.” for “saline.”
To determine cellular apoptosis we used a TUNEL assay kit (Roche Diagnostics, Indianapolis, IN) using 5-μm lung sections by following the manufacturer’s instructions. […] The TUNEL-positive cells were assessed by LSM900 confocal microscope (Zeiss) microscopes. The number of apoptotic cells/fields was quantified using ImageJ, Fiji software (version 1.53k).

[5] = test system: CLP-induced sepsis in C57BL/6 mice; assay: Survival study in CLP mice; conditions: C11 10 mg/kg i.p. once after CLP (Figure 5 legend: 10 μg/kg), single s.c. imipenem 0.5 mg/kg; n = 21/group; CLP vehicle 28.6%; p < 0.05 vs. CLP vehicle, log-rank
Description: as §1, with “saline. Postoperative analgesia was administered with a single dose of 0.1 mg/kg buprenorphine.” for “saline.”
All statistical analyses were performed using Prism 10 (GraphPad Software, San Diego, CA). Data are expressed as the mean ± standard error of the mean (SEM), and p-values < 0.05 were considered statistically significant. […] For survival analysis, data were assessed using the Kaplan-Meier estimator and compared using the log-rank test.

With 126-ELKNRTVSWFS-136 [Compound C11] the “neutrophil-mediated B-1a cell trogocytosis” value [1] was “significantly reduced”, the “plasma IL-6” value [2] was “significantly reduced” and the “plasma TNF-α” value [2] was “significantly reduced”. The “lung MPO activity” value [3] was “attenuated”, the “lung apoptosis (TUNEL+ cells)” value [4] was “reduced tissue damage and apoptosis” and the survival [5] was 57.1%.
